Patent US10765651B2, “Co-crystals of substituted glycine and uses thereof” (SyneuRx International (Taiwan) Corp., priority 2017, dated 2020)
Blank lines part the entries; values can stand above or below the compound they belong to.

Key:
[1] = Hygroscopicity test, condition 2 (humidity chamber, weight change); type: physicochemical; conditions: for Weight change (%): dry before (change on drying to 0 hr weight)
[2] = Hygroscopicity test, condition 3 (dynamic vapor sorption, 0 to 90 to 0% RH); type: physicochemical; conditions: DVS, 25° C.
Description: Measurement were taken from 0 to 90 to 0% RH at 25° C. with 10% RH per step with equilibration set to dm/dt+0.01%/min for 10 min or 180 min/step.

[3] = Hygroscopicity test of fumaric acid co-crystals under ambient conditions; type: physicochemical
Description: 0.1 to 0.5 g of each of 1:1, 2:1, 3:1, and 6:1 N-methylglycine co-crystals were placed in the vial under the ambient conditions. The weight changes at various time points of each co-crystal were measured and illustrated in Table 4 below.

[4] = 70-75% RH, room temperature, 3 days
[5] = 30° C., 75% RH, 5 hr, listed as 1:1 N-methylglycine:DL-tartaric acid co-crystal
[6] = 30° C., 75% RH, 72 hr, listed as 2:1 N-methylglycine:L-tartaric acid co-crystal

Weight ([1]; 30° C., 75% RH, 0 hr): 0.1302 g
Weight ([1]; 30° C., 75% RH, 1 hr): 0.1349 g
Weight change (%), water absorbed ([1]; 30° C., 75% RH, 1 hr): (+3.6%)
Outward (appearance) ([1]; 30° C., 75% RH, 2 hr): Wet
Weight ([1]; 30° C., 75% RH, 2 hr): 0.1399 g
Weight change (%), water absorbed ([1]; 30° C., 75% RH, 2 hr): (+7.4%)
Weight ([1]; 30° C., 75% RH, 3 hr): 0.1469 g
Weight change (%), water absorbed ([1]; 30° C., 75% RH, 3 hr): (+12.8%)
Outward (appearance) ([1]; 30° C., 75% RH, 5 hr): Partial
Weight ([1]; 30° C., 75% RH, 5 hr): 0.1545 g
Weight change (%), water absorbed ([1]; 30° C., 75% RH, 5 hr): (+18.7%)
Outward (appearance) [1, 5]: started to turn into a partial liquid
Weight change (%), water absorbed [1, 5]: 18.7%
Outward (appearance) ([1]; 30° C., 75% RH, 24 hr): 50%
Weight ([1]; 30° C., 75% RH, 24 hr): 0.1819 g
Weight change (%), water absorbed ([1]; 30° C., 75% RH, 24 hr): (+39.7%)
Weight ([1]; 30° C., 75% RH, 48 hr): 0.1819 g
Weight change (%), water absorbed ([1]; 30° C., 75% RH, 48 hr): (+39.7%)
Weight ([1]; 30° C., 75% RH, 72 hr): 0.1823 g
Weight change (%), water absorbed ([1]; 30° C., 75% RH, 72 hr): (+40.0%)
Outward (appearance) ([1]; dry before): White
Weight ([1]; dry before): 0.1305 g
Weight change (%) [1]: (−0.2%)
SMILES: CNCC(=O)O.O=C(O)C(O)C(O)C(=O)O (racemic) [N-MG/DL-TA = 1/1, N-methylglycine:DL-tartaric acid 1:1 co-crystal]
Hygroscopicity comparison ([1]; 30° C., 75% RH, listed as 1:1 N-methylglycine:DL-tartaric acid co-crystal): much less hygroscopic than 2:1 N-methylglycine:DL-tartaric acid co-crystal

Weight ([1]; 30° C., 75% RH, 0 hr): 0.1628 g
Weight ([1]; 30° C., 75% RH, 1 hr): 0.1695 g
Weight change (%), water absorbed ([1]; 30° C., 75% RH, 1 hr): (+4.1%)
Outward (appearance) ([1]; 30° C., 75% RH, 2 hr): Wet
Weight ([1]; 30° C., 75% RH, 2 hr): 0.1768 g
Weight change (%), water absorbed ([1]; 30° C., 75% RH, 2 hr): (+8.6%)
Weight ([1]; 30° C., 75% RH, 3 hr): 0.1816 g
Weight change (%), water absorbed ([1]; 30° C., 75% RH, 3 hr): (+11.5%)
Outward (appearance) ([1]; 30° C., 75% RH, 5 hr): Partial
Weight ([1]; 30° C., 75% RH, 5 hr): 0.1877 g
Weight change (%), water absorbed ([1]; 30° C., 75% RH, 5 hr): (+15.3%)
Outward (appearance) ([1]; 30° C., 75% RH, 24 hr): Liquid
Weight ([1]; 30° C., 75% RH, 24 hr): 0.2374 g
Weight change (%), water absorbed ([1]; 30° C., 75% RH, 24 hr): (+45.8%)
Weight ([1]; 30° C., 75% RH, 48 hr): 0.2423 g
Weight change (%), water absorbed ([1]; 30° C., 75% RH, 48 hr): (+48.8%)
Weight ([1]; 30° C., 75% RH, 72 hr): 0.2441 g
Weight change (%), water absorbed ([1]; 30° C., 75% RH, 72 hr): (+49.9%)
Outward (appearance) ([1]; dry before): White
Weight ([1]; dry before): 0.1628 g
Weight change (%) [1]: (−0%)
Change In Mass (%) ([2]; RH 0%): 0.00%
Change In Mass (%) ([2]; RH 10%): 0.15%
Change In Mass (%) ([2]; RH 20%): 0.21%
Change In Mass (%) ([2]; RH 30%): 0.26%
Change In Mass (%) ([2]; RH 40%): 0.77%
Change In Mass (%) ([2]; RH 60%): 2.03%
Change In Mass (%) ([2]; RH 70%): 3.12%
Change In Mass (%) ([2]; RH 80%): 8.12%
Change In Mass (%) ([2]; RH 90%): 30.35%
SMILES: CNCC(=O)O.CNCC(=O)O.O=C(O)C(O)C(O)C(=O)O (racemic) [N-MG/DL-TA = 2/1, N-methylglycine:DL-tartaric acid 2:1 co-crystal]

Change In Mass (%) ([2]; RH 70%): 3.12%
Change In Mass (%) ([2]; RH 90%): 30.35%
SMILES: CNCC(=O)O.CNCC(=O)O.O=C(O)C(O)C(O)C(=O)O (racemic) [N-methylglycine:DL-tartaric acid 2:1 co-crystal]

Change In Mass (%) ([2]; RH 0%): 0.00%
Change In Mass (%) ([2]; RH 10%): 0.02%
Change In Mass (%) ([2]; RH 20%): 0.04%
Change In Mass (%) ([2]; RH 30%): 0.07%
Change In Mass (%) ([2]; RH 40%): 0.10%
Change In Mass (%) ([2]; RH 50%): 0.15%
Change In Mass (%) ([2]; RH 60%): 0.20%
Change In Mass (%) ([2]; RH 70%): 0.31%
Change In Mass (%) ([2]; RH 80%): 0.60%
Change In Mass (%) ([2]; RH 90%): 14.27%
SMILES: CNCC(=O)O.CNCC(=O)O.O=C(O)C(O)C(O)C(=O)O [N-MG/D-TA = 2/1, N-methylglycine:D-tartaric acid 2:1 co-crystal]

Change In Mass (%) ([3]; 1 hr): 0.48%
Change In Mass (%) ([3]; 2 hr): 0.67%
Change In Mass (%) ([3]; 3 hr): 0.57%
Change In Mass (%) ([3]; 4 hr): 0.57%
Change In Mass (%) ([3]; 5 hr): 0.57%
Change In Mass (%) ([3]; 21 hr): 0.96%
Change In Mass (%) ([3]; 24 hr): 0.96%
Change In Mass (%) ([3]; 45 hr): 0.96%
Change In Mass (%) ([3]; 48 hr): 0.96%
Change In Mass (%) ([3]; 96 hr): 0.96%
SMILES: CNCC(=O)O.O=C(O)/C=C/C(=O)O [N-MG/FA = 1/1, N-methylglycine:fumaric acid (1:1 co-crystal)]
Hygroscopicity comparison [3]: much less hygroscopic than the 2:1, 3:1, and 6:1 co-crystals

Change In Mass (%) ([3]; 15 hr): 5.81%
Change In Mass (%) ([3]; 21 hr): 6.29%
Change In Mass (%) ([3]; 45 hr): 7.08%
Change In Mass (%) ([3]; 48 hr): 7.12%
Change In Mass (%) ([3]; 64 hr): 7.49%
SMILES: CNCC(=O)O.CNCC(=O)O.O=C(O)/C=C/C(=O)O [N-MG/FA = 2/1, N-methylglycine:fumaric acid (2:1 co-crystal)]

Change In Mass (%) ([3]; 15 hr): 18.29%
Change In Mass (%) ([3]; 21 hr): 20.78%
Change In Mass (%) ([3]; 45 hr): 26.13%
Change In Mass (%) ([3]; 48 hr): 26.37%
Change In Mass (%) ([3]; 64 hr): 29.22%
SMILES: CNCC(=O)O.CNCC(=O)O.CNCC(=O)O.O=C(O)/C=C/C(=O)O [N-MG/FA = 3/1, N-methylglycine:fumaric acid (3:1 co-crystal)]

Change In Mass (%) ([3]; 15 hr): 18.30%
Change In Mass (%) ([3]; 21 hr): 25.14%
Change In Mass (%) ([3]; 45 hr): 47.59%
Change In Mass (%) ([3]; 48 hr): 48.84%
Change In Mass (%) ([3]; 64 hr): 56.36%
SMILES: CNCC(=O)O.CNCC(=O)O.CNCC(=O)O.CNCC(=O)O.CNCC(=O)O.CNCC(=O)O.O=C(O)/C=C/C(=O)O [N-MG/FA = 6/1, N-methylglycine:fumaric acid (6:1 co-crystal)]

Weight ([1]; 30° C., 75% RH, 0 hr): 0.1455 g
Weight ([1]; 30° C., 75% RH, 1 hr): 0.1462 g
Weight change (%), water absorbed ([1]; 30° C., 75% RH, 1 hr): (+0.4%)
Weight ([1]; 30° C., 75% RH, 2 hr): 0.1463 g
Weight change (%), water absorbed ([1]; 30° C., 75% RH, 2 hr): (+0.5%)
Weight ([1]; 30° C., 75% RH, 3 hr): 0.1464 g
Weight change (%), water absorbed ([1]; 30° C., 75% RH, 3 hr): (+0.6%)
Weight ([1]; 30° C., 75% RH, 5 hr): 0.1465 g
Weight change (%), water absorbed ([1]; 30° C., 75% RH, 5 hr): (+0.7%)
Weight ([1]; 30° C., 75% RH, 24 hr): 0.1465 g
Weight change (%), water absorbed ([1]; 30° C., 75% RH, 24 hr): (+0.7%)
Weight ([1]; 30° C., 75% RH, 48 hr): 0.1465 g
Weight change (%), water absorbed ([1]; 30° C., 75% RH, 48 hr): (+0.7%)
Outward (appearance) ([1]; 30° C., 75% RH, 72 hr): Partial
Weight ([1]; 30° C., 75% RH, 72 hr): 0.1471 g
Weight change (%), water absorbed ([1]; 30° C., 75% RH, 72 hr): (+1.1%)
Outward (appearance) [1, 6]: turned into a partial liquid
Weight change (%), water absorbed [1, 6]: 1.1%
Outward (appearance) ([1]; dry before): White
Weight ([1]; dry before): 0.1457 g
Weight change (%) [1]: (−0.1%)
Change In Mass (%) ([2]; RH 0%): 0.00%
Change In Mass (%) ([2]; RH 10%): 0.01%
Change In Mass (%) ([2]; RH 20%): 0.03%
Change In Mass (%) ([2]; RH 30%): 0.05%
Change In Mass (%) ([2]; RH 40%): 0.07%
Change In Mass (%) ([2]; RH 50%): 0.09%
Change In Mass (%) ([2]; RH 60%): 0.13%
Change In Mass (%) ([2]; RH 70%): 0.18%
Change In Mass (%) ([2]; RH 80%): 0.32%
Change In Mass (%) ([2]; RH 90%): 10.74%
SMILES: CNCC(=O)O.CNCC(=O)O.O=C(O)C(O)C(O)C(=O)O [N-MG/L-TA = 2/1, N-methylglycine:L-tartaric acid 2:1 co-crystal]
Appearance after exposure to high humidity [4]: turned into moisturized and somewhat sticky white solid

Change In Mass (%) ([2]; RH 70%): 0.31%
Change In Mass (%) ([2]; RH 90%): 14.27%
SMILES: CNCC(=O)O.CNCC(=O)O.O=C(O)C(O)C(O)C(=O)O [N-methylglycine:D-tartaric acid 2:1 co-crystal]

Change In Mass (%) ([2]; RH 70%): 0.18%
Change In Mass (%) ([2]; RH 90%): 10.74%
SMILES: CNCC(=O)O.CNCC(=O)O.O=C(O)C(O)C(O)C(=O)O [N-methylglycine:L-tartaric acid 2:1 co-crystal]
